From ChEMBL document CHEMBL1201862, “PubChem BioAssay data set” (2004) come the findings set out here.

Test systems include SK-OV-3; RXF 393; HCC 2998; HL-60; MCF7; NCI-H460; SK-MEL-28; UACC-62; SNB-19; SN12C; DU-145; SR; K562; M14; OVCAR-5; U-251; SK-MEL-2; PC-3; CCRF-CEM; MDA-MB-231.
Assay in all cases: NCI tumour cell line growth inhibition, 48 h

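Five concentrations, 48 hours, 96-well plates. The concentration for 50% growth inhibition is given as GI50.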 Calls of active or inactive are those of the source. No stated cut-off is given here; in the data, active = GI50 up to about 1.1 µM and inactive = higher.

For `O=C1N=C(Nc2ccccc2Cl)N/C1=C\c1ccc(Cl)cc1Cl`, the GI50 with SK-OV-3 is > 100 µM (inactive); in the assay with RXF 393, 15.5 µM (inactive); in the assay on HCC 2998, 53.5 µM (inactive); in the assay on HL-60 it was 0.122 µM (active); with MCF7 it was 31.4 µM (inactive); in the assay with NCI-H460, 49.2 µM (inactive). Further, the GI50 is 99.8 µM (inactive) in the assay with SK-MEL-28; > 100 µM (inactive) in the assay with UACC-62; > 100 µM (inactive) in the assay with SNB-19; 25 µM (inactive) in the assay with SN12C; 33.3 µM (inactive) with DU-145; 5.3 µM (inactive) in the assay on SR. Besides, the GI50 in the assay on K562 was 9.46 µM (inactive); in the assay with M14, 72.6 µM (inactive); with OVCAR-5, > 100 µM (inactive); in the assay with U-251 it was 33.9 µM (inactive); in the assay with SK-MEL-2, 18.9 µM (inactive); in the assay with PC-3, 33.7 µM (inactive). In addition, the GI50 with CCRF-CEM is 29.5 µM (inactive).
On to `CN(C)CCn1c(=O)c2ccc3c4c(nn3CCN(C)C)c3cc(O)ccc3n(c1=O)c24`, for which the GI50 in the assay with RXF 393 was 0.281 µM (active); in the assay on HCC 2998, < 0.0493 µM (active); in the assay with HL-60, 0.0419 µM (active); in the assay with NCI-H460, < 0.0411 µM (active); with SK-MEL-28, 0.548 µM (active); in the assay on UACC-62 it was 0.172 µM (active). The GI50 with SN12C was 0.0148 µM (active); in the assay on SR, < 0.01 µM (active); in the assay on K562, 0.0459 µM (active); in the assay with M14 it was 0.397 µM (active); in the assay on OVCAR-5, 0.0723 µM (active); in the assay with U-251 it was < 0.0348 µM (active). Further, the GI50 in the assay with SK-MEL-2 is 0.131 µM (active); with PC-3, 0.0659 µM (active); in the assay on CCRF-CEM, < 0.032 µM (active); in the assay on MDA-MB-231, 0.0536 µM (active).
As to `C#CCCCC(=C)C[C@@H]1OC(=O)[C@H](C)[C@@H]1O`, the GI50 in the assay with SK-OV-3, in the assay on RXF 393, in the assay with HCC 2998, with HL-60, in the assay with MCF7 and in the assay with NCI-H460 was > 100 µM (inactive) in each case. Moreover, the GI50 in the assay with SK-MEL-28, in the assay on SNB-19, in the assay with SN12C, in the assay on DU-145, in the assay on K562 and in the assay on M14 was > 100 µM (inactive) each time. Moreover, the GI50 with OVCAR-5, in the assay with U-251, with SK-MEL-2, in the assay with PC-3 and in the assay on CCRF-CEM was > 100 µM (inactive) throughout.
For `Nc1nc2c(ncn2C2OC(CO)C(O)C2O)c(=O)o1` (stereo not drawn), the GI50 in the assay with SK-OV-3 was > 100 µM (inactive); in the assay on RXF 393 it was > 100 µM (inactive); in the assay with HCC 2998 it was 5.82 µM (inactive); in the assay with HL-60 it was > 45.1 µM (inactive); in the assay on NCI-H460, > 100 µM (inactive); with SK-MEL-28 it was > 100 µM (inactive). Moreover, the GI50 in the assay on UACC-62 is > 100 µM (inactive); in the assay with SNB-19, > 100 µM (inactive); in the assay with SN12C, > 100 µM (inactive); in the assay with DU-145 it was > 100 µM (inactive); in the assay on K562, > 21.9 µM (inactive); in the assay on M14, > 100 µM (inactive). The GI50 in the assay with OVCAR-5 was > 100 µM (inactive); in the assay with U-251, > 100 µM (inactive); with SK-MEL-2 it was > 100 µM (inactive); with PC-3, > 100 µM (inactive); with CCRF-CEM, > 23.2 µM (inactive).
As for `Cc1ccc(C)c(NC(=O)CC/C(=N\NC(=O)C(N)=O)C(C)C(=O)c2ccc(O)cc2)c1` (stereo not drawn), the GI50 with SK-OV-3 is > 100 µM (inactive); in the assay with RXF 393, 61.1 µM (inactive); in the assay on HCC 2998, > 100 µM (inactive); with HL-60, > 100 µM (inactive); in the assay on NCI-H460, > 100 µM (inactive); in the assay on SK-MEL-28, > 100 µM (inactive). The GI50 with UACC-62, with SNB-19, with SN12C, in the assay on SR, in the assay on K562 and in the assay with M14 was > 100 µM (inactive) in each case. The GI50 in the assay on OVCAR-5, in the assay on U-251, in the assay with SK-MEL-2 and in the assay on CCRF-CEM was > 100 µM (inactive) each time.
For the compound `CN(C)NC1=NS(=O)(=O)c2cc3c(cc2S1)N(N(C)C)C(=O)c1cc2c(cc1N(N(C)C)C3=O)SC(NN(C)C)=NS2(=O)=O`, the GI50 with SK-OV-3, in the assay with RXF 393, in the assay with HCC 2998, in the assay on HL-60, in the assay on MCF7 and in the assay with NCI-H460 was > 10 µM (inactive) in each case. Besides, the GI50 with SK-MEL-28, in the assay with SNB-19, in the assay on SN12C, in the assay with DU-145, in the assay on SR and in the assay with K562 was > 10 µM (inactive) throughout. For the same compound, the GI50 in the assay on M14, in the assay with OVCAR-5, in the assay with U-251, in the assay with SK-MEL-2, in the assay with PC-3 and with CCRF-CEM was > 10 µM (inactive) throughout.
Regarding `Cc1cccc(Nc2cn(COCc3ccccc3)c(=O)[nH]c2=O)c1`, the GI50 is 56 µM (inactive) with RXF 393; > 100 µM (inactive) in the assay on HCC 2998; > 100 µM (inactive) in the assay on HL-60; 72.6 µM (inactive) with MCF7; > 100 µM (inactive) in the assay on NCI-H460; > 100 µM (inactive) in the assay on SK-MEL-28. Moreover, the GI50 with UACC-62, in the assay on SNB-19, in the assay on SN12C, in the assay with DU-145, with SR and in the assay on K562 was > 100 µM (inactive) throughout. The GI50 with M14, in the assay with OVCAR-5, in the assay on U-251, in the assay with PC-3 and with CCRF-CEM was > 100 µM (inactive) in each case.
Regarding `COC(=O)/C1=C/c2c([nH]c3ccccc23)/C(C(=O)OC)=C\c2c1[nH]c1ccccc21` [CAULERPIN], the GI50 with SK-OV-3 was > 50 µM (inactive); with RXF 393, 12.7 µM (inactive); in the assay on MCF7, 10.3 µM (inactive); with NCI-H460, 13.3 µM (inactive); in the assay on UACC-62, 19.9 µM (inactive); in the assay on SNB-19, 33.7 µM (inactive). Besides, the GI50 in the assay on SN12C is 34.4 µM (inactive); in the assay with DU-145 it was 42 µM (inactive); in the assay on M14, 25.2 µM (inactive); with OVCAR-5 it was > 50 µM (inactive); in the assay on U-251, 19.5 µM (inactive); in the assay on SK-MEL-2 it was 14.4 µM (inactive). In the assay with MDA-MB-231, the GI50 is 13.7 µM (inactive).
